Laboratory results: US6949583B2, “Aminoalkoxybenzoyl-benzofuran or benzothiophene derivatives, method of preparing same and compositions containing same” (Sanofi-Synthelabo, priority 2000, dated 2005)
Structures can show the parent of a compound that is named as a salt.

Structure (SMILES) | melting point
CCCCN(CCCC)COCc1ccc(C(=O)c2c(C(C)C)oc3ccc(C(=O)OC(C)C)cc23)cc1 (as salt: oxalate) | 106 to 108 °C
CCCCc1oc2ccc(C(=O)OC(C)C)cc2c1C(=O)c1ccccc1CCCN(CCCC)CCCC (as salt: oxalate) | 85 to 88 °C
CCCCc1oc2ccc(C(=O)OC(C)C)cc2c1C(=O)c1cc(Cl)c(CCCN(CCCC)CCCC)c(Cl)c1 (as salt: oxalate) | 87 to 89 °C
CCCCc1oc2ccc(C(=O)OC)cc2c1C(=O)c1ccc(CN(CCCC)CCCC)cc1 (as salt: oxalate) | 96 to 97 °C
CCCCc1oc(C)c(C(=O)OCC)c1C(=O)c1ccc(CCCN(CCCC)CCCC)cc1 (as salt: oxalate) | 133 to 135 °C
CCCCc1oc2ccc(C(=O)OC(C)C)cc2c1C(=O)c1ccc(CN2CCN(CC)CC2)cc1 (as salt: oxalate) | 222 to 224 °C
CCCCCc1oc2ccc(C(=O)OC(C)C)cc2c1C(=O)c1ccc(CCCN(CCCC)CCCC)cc1 (as salt: oxalate) | 124 to 126 °C
CCCCN(CCCC)CCCc1ccc(C(=O)c2c(CCC(=O)OC)oc3ccc(C(=O)OC(C)C)cc23)cc1 (as salt: oxalate) | 107 to 108 °C
CCCCc1oc2ccc(C(=O)OC)cc2c1C(=O)c1ccc(CN2CCN(CC)CC2)cc1 (as salt: oxalate) | 220 to 221 °C
CCCCN(CCCC)CCCc1ccc(C(=O)c2c(C)oc3ccc(C(=O)OC(C)C)cc23)cc1 (as salt: oxalate) | 107 to 108 °C
CCCCN(CCCC)CCCc1ccc(C(=O)c2c(C3CCCCC3)oc3ccc(C(=O)OC(C)C)cc23)cc1 (as salt: oxalate) | 124 to 126 °C
CCCCc1oc2ccc(C(=O)OC(C)C)cc2c1C(=O)c1ccc(CCCN(CCCC)CCCC)s1 (as salt: oxalate) | 100 °C
CCCCc1oc2ccc(C(=O)OC(C)C)cc2c1C(=O)c1ccc(CC(O)CN(CCCC)CCCC)cc1 (stereo not shown) (as salt: oxalate) | 90 to 91 °C
CCCCN(CCCC)CCCc1ccc(C(=O)c2c(CC(C)C)oc3ccc(C(=O)OC(C)C)cc23)cc1 (as salt: oxalate) | 105 to 107 °C
CCCCc1oc2ccc(C(=O)OC(C)C)cc2c1C(=O)c1cccc(CCCN(CCCC)CCCC)c1 (as salt: oxalate) | 87 to 90 °C
CCCCc1oc2ccc(C(=O)OC)cc2c1C(=O)c1ccc(C(O)CN(CCCC)CCCC)cc1 (stereo not shown) (as salt: oxalate) | 124 to 126 °C

Structure (SMILES) | melting point
CCCCc1oc2ccc(C(=O)OC(C)C)cc2c1C(=O)c1ccc(CN(CCCC)CCCC)cc1 (as salt: oxalate) | 107 to 108 °C
CCCCc1oc2ccc(C(=O)OC(C)C)cc2c1C(=O)c1ccc(COCCCN(CCCC)CCCC)cc1 (as salt: oxalate) | 73 to 74 °C
CCCCc1oc2ccc(C(=O)OC(C)C)cc2c1C(=O)c1ccc(C(O)CN(CCCC)CCCC)cc1 (stereo not shown) (as salt: oxalate) | 134 to 135 °C
CCCCN(CCCC)CCCc1ccc(C(=O)c2c(CCC)oc3ccc(C(=O)OC(C)C)cc23)cc1 (as salt: oxalate) | 155 to 157 °C
CCCCc1oc2ccc(C(=O)OC(C)C)cc2c1C(=O)c1ccc([C@@H]([C@@H](C)O)N(CCCC)CCCC)cc1 (as salt: oxalate) | 150 to 151 °C
CCCCc1oc2ccc(C(=O)OC(C)C)cc2c1C(=O)c1ccc(CCCN(CCCC)CCCC)o1 (as salt: oxalate) | 75 to 78 °C
CCCCc1oc2ccc(C(=O)OC(C)C)cc2c1C1(c2ccc(CCCN(CCCC)CCCC)cc2)OCCO1 (as salt: oxalate) | 106 to 108 °C
CCCCc1oc2ccc(C(=O)OC(C)C)cc2c1C(=O)c1ccc([C@@H](O)[C@@H](C)N(CCCC)CCCC)cc1 (as salt: oxalate) | 107 to 108 °C
CCCCc1oc2ccc(C(=O)OC(C)C)cc2c1C(=O)c1ccc(COCCN(CCCC)CCCC)cc1 (as salt: oxalate) | 73 °C
CCCCc1oc2ccc(C(=O)OC)cc2c1C(=O)c1ccc(CC(O)CN(CCCC)CCCC)cc1 (stereo not shown) (as salt: oxalate) | 128 to 130 °C
CCCCc1oc2cc(C)c(C(=O)OC(C)C)cc2c1C(=O)c1ccc(CCCN(CC)CC)cc1 (as salt: oxalate) | 155 to 157 °C
CCCCc1oc2ccc(C(=O)OC(C)C)cc2c1C(=O)c1cc(C)c(CCCN(CCCC)CCCC)c(C)c1 (as salt: oxalate) | 119 to 121 °C
CCCCc1sc2ccc(C(=O)OC(C)C)cc2c1C(=O)c1ccc(CCCN(CCCC)CCCC)cc1 (as salt: oxalate) | 86 to 89 °C
CCCCN(CCCC)CCCc1ccc(C(=O)c2c(CCCC(=O)OC)oc3ccc(C(=O)OC(C)C)cc23)cc1 (as salt: oxalate) | 105 °C
CCCCc1oc2ccc(C(=O)OC(C)C)cc2c1C(=O)c1ccc(C(C)(C)CCN(CCCC)CCCC)cc1 (as salt: oxalate) | 92 to 93 °C
